Measured values from patent US20200085778A1, “Agent for Promoting Decomposition and Clearance of Amyloid-Beta” (Kao Corporation, priority 2017, published 2020).

Molecular target: T1, aggregated amyloid-β (amyloid-β peptide, Human, 1-42) (Homo sapiens, UniProt P05067)
T1 construct: An amyloid-β peptide (Human, 1-42, Peptide Institute, Inc.); purchased Peptide Institute, Inc
Experiment: thioflavin T (ThT) fluorescence assay of degrading aggregated amyloid
Type: biochemical
Conditions: final concentration 1, 10, or 100 μM, 37° C. for 7 days, vs 0.5% DMSO control; FIG. 1
Description: The direct activity of degrading aggregated amyloid by chlorogenic acid (5-CQA) was examined using a thioflavin T (ThT) fluorescence assay. An amyloid-β peptide (Human, 1-42, Peptide Institute, Inc.) was dissolved in dimethyl sulfoxide (DMSO) to 2.5 mM and was further adjusted to 250 μM with sterile water, followed by incubation at 37° C. for 7 days to promote the aggregation reaction. After the reaction, chlorogenic acid (5-CQA, Cayman Chemical Company) was added to the aggregated amyloid-β (10 mass %) at a final concentration of 1, 10, or 100 μM, followed by further incubation at 37° C. for 7 days. As a control, 0.5% DMSO, which was used as the solvent of the chlorogenic acid, was added. After the reaction, ThT (Sigma-Aldrich, final concentration: 5 μM) dissolved in 50 mM glycine buffer (pH 8.5) was added to the reaction solution in a 96-well plate (ThermoFisher Scientific), followed by a reaction at room temperature for 15 minutes while gently stirring under light shielding. After the reaction, fluorescence was detected at 450 nm (excitation) and 480 nm (emission) using a fluorescence plate reader (Ensight 3400, PerkinElmer Co., Ltd.) to measure the degree of aggregation of amyloid-β.

T1 sequence (P05067 672-713): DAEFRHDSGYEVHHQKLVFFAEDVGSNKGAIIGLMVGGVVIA

## O=C(/C=C/c1ccc(O)c(O)c1)O[C@@H]1C[C@](O)(C(=O)O)C[C@@H](O)[C@H]1O [chlorogenic acid, 5-caffeoylquinic acid]
  activity of degrading aggregated amyloid (degree of aggregation of amyloid-β, ThT fluorescence): has an activity of degrading aggregated amyloid in a dose-dependent manner
